Assay results: ChEMBL document CHEMBL1141310, “Screening of Indonesian medicinal plant extracts for antibabesial activity and isolation of new quassinoids from Brucea javanica” (J Nat Prod, 2007)
≈ marks a conversion by molar mass, not a printed value.

Tested on: Babesia gibsoni
Test: Antibabesial activity against Babesia gibsoni
Assay type: functional, organism-based

Row | Structure (SMILES) | IC50
1 | CC(=O)OC(C)(C)/C(C)=C/C(=O)O[C@H]1C(=O)O[C@@H]2C[C@H]3C(C)=C(O)C(=O)C[C@]3(C)[C@H]3[C@@H](O)[C@H](O)[C@@]4(C(=O)O)OC[C@]32[C@@H]14 [BRUCEANTINOL B] | 0.978 µg/mL (≈ 1.65 µM)
2 | COC(=O)[C@]12OC[C@]34[C@H]([C@@H](O)[C@@H]1O)[C@@]1(C)CC(=O)C(O)=C(C)[C@@H]1C[C@H]3OC(=O)[C@H](OC(=O)/C=C(\C)C(C)(C)OC(C)=O)[C@@H]24 [BRUCEANTINOL] | 0.012 µg/mL (≈ 0.0198 µM)
3 | COC(=O)[C@@]12OC[C@]34[C@H]([C@@H](O)[C@@H]1O)[C@@]1(C)CC(=O)C(O)=C(C)[C@@H]1C[C@H]3OC(=O)[C@H](OC(=O)CC(C)C)[C@@H]24 [BRUCEINE A] | 0.004 µg/mL (≈ 0.00765 µM)
4 | COC(=O)[C@@]12OC[C@]34[C@H]([C@@H](O)[C@@H]1O)[C@@]1(C)CC(=O)C(O)=C(C)[C@@H]1C[C@H]3OC(=O)[C@H](OC(C)=O)[C@@H]24 [BRUCEINE B] | 0.893 µg/mL (≈ 1.86 µM)
5 | COC(=O)[C@]12OC[C@]34[C@H]([C@@H](O)[C@@H]1O)[C@@]1(C)CC(=O)C(O)=C(C)[C@@H]1C[C@H]3OC(=O)[C@H](OC(=O)/C=C(\C)C(C)(C)O)[C@@H]24 [BRUCEINE C] | 0.107 µg/mL (≈ 0.19 µM)
6 | CC1=CC(=O)[C@@H](O)[C@]2(C)[C@H]3[C@@H](O)[C@H](O)[C@]4(C)OC[C@@]35[C@@H](C[C@@H]12)OC(=O)[C@H](O)[C@]54O [BRUCEINE D] | 0.835 µg/mL (≈ 2.03 µM)
7 | CC1=C(O)C(=O)C[C@]2(C)[C@H]3[C@@H](O)[C@H](O)[C@@]4(C(=O)O)OC[C@@]35[C@@H](C[C@@H]12)OC(=O)[C@H](OC(=O)CC(C)C)[C@@H]45 [BRUCEINE J] | 0.742 µg/mL (≈ 1.46 µM)
8 | CC(=O)NCC(=O)O.N=C(N)c1ccc(/N=N/Nc2ccc(C(=N)N)cc2)cc1 [DIMINAZEN ACETURATE] | 0.103 µg/mL
9 | CC1=CC(=O)[C@@H](O)[C@]2(C)[C@H]3[C@@H](O)[C@H](O)[C@]4(CO)OC[C@@]35[C@@H](C[C@@H]12)OC(=O)[C@H](O)[C@]54O [YADANZIOLIDE A] | 0.216 µg/mL (≈ 0.507 µM)
